Target: human F508del-CFTR (Homo sapiens, UniProt P13569, DEL508-508)
Assay: F508del-CFTR cell surface expression (corrector activity), DiscoveRx ß-galactosidase complementation chemiluminescence assay in recombinant U2OS cell line;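 note: U2OS cells co-expressing ProLink-tagged F508del-CFTR and a membrane-anchored enzyme acceptor, where more surface CFTR restores β-galactosidase activity measured by chemiluminescence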
Conditions: U2OS cell line, 16h compound incubation; for EC50: EC50, F508del-CFTR cell surface expression, geomean values; for Emax: U2OS, in relation to the Emax of the corrector lumacaftor (=100%), arithmetic mean values
Experimental: The method measures the effect of over-night compound incubation on F508del-CFTR cell surface expression in a recombinant U2OS cell line (DiscoveRx, #93-0987C3). This cell line is engineered to co-express (i) human F508del-CFTR tagged with a Prolink (PK=short ß-galactosidase fragment) and (ii) the remainder of the ß-galactosidase enzyme (Enzyme Acceptor; EA) localized to the plasma membrane. Incubation with compounds that increase PK-tagged F508del-CFTR at the plasma membrane will lead to complementation of the EA fragment to form a functional ß-galactosidase enzyme which is quantified by a chemiluminescence reaction.
The cells are incubated for 5h in the incubator before the addition of 5 μl/well of compound dilution series (5× working stocks in full medium). […] The cells are co-incubated with the compounds for 16h in the incubator at 37° C., 5% CO2. The next day, the cell plates are incubated for 2h at RT in the dark. […] Concentration-response curves are generated using compound-intrinsic maximal efficacy as upper plateau, and from these CRCs compound-intrinsic EC50 values are determined.
The calculated EC50 values may fluctuate depending on the daily assay performance. […] EC50 values from several measurements are given as geomean values. The calculated Emax values may fluctuate depending on the daily assay performance. […] Emax values from several measurements are given as arithmetic mean values.

human F508del-CFTR, sequence (P13569 with tags, fused parts or gaps DEL508-508): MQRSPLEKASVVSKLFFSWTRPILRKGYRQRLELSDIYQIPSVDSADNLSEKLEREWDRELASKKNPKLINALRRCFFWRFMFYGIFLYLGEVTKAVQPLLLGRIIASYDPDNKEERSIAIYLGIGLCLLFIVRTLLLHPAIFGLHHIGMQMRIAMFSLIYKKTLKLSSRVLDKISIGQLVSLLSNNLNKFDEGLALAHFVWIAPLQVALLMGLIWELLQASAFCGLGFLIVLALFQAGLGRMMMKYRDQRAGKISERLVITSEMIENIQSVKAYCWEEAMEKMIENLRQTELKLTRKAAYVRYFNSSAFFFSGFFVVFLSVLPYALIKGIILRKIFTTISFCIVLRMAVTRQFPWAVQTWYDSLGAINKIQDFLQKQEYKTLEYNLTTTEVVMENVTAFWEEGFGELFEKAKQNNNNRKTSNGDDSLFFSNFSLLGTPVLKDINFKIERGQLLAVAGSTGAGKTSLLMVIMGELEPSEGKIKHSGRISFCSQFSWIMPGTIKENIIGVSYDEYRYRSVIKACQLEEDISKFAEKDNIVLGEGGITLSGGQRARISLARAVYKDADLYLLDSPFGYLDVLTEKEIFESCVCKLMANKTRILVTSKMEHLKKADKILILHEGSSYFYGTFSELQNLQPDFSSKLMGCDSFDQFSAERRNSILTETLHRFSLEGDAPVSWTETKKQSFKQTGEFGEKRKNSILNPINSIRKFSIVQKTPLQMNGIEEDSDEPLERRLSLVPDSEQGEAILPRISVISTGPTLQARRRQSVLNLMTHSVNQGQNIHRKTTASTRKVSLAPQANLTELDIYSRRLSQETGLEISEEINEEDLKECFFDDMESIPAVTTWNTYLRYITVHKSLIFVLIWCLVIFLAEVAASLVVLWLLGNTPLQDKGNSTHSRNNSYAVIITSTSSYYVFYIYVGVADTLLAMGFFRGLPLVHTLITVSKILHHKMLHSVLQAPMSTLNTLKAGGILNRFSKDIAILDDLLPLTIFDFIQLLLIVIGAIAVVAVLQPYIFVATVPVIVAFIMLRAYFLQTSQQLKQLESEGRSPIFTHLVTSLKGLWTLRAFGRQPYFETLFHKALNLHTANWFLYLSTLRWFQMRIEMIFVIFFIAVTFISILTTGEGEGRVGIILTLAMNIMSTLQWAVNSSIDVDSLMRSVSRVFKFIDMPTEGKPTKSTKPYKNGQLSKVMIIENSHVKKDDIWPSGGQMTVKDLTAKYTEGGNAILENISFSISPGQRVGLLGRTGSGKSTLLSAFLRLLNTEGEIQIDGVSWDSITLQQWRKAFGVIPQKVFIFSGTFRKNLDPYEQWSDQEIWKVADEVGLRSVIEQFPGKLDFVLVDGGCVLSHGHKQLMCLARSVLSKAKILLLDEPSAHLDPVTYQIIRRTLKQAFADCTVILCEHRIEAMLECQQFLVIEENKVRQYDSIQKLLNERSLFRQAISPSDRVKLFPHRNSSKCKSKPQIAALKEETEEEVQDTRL

Compound	EC50	Emax
Cc1cccc(CCNC(=O)[C@@H]2CC(=O)N(C)[C@@H](CC(C)C)C(=O)N3CCOC[C@@H]3C(=O)N[C@H](Cc3ccccc3)COc3cnc4ccccc4c3C(=O)N2)c1 [Example 62, (9S,13S,19aR,22R)-22-benzyl-13-isobutyl-12-methyl-N-(3-methylphenethyl)-7,11,14,20-tetraoxo-7,8,9,10,11,12,13,14,16,17,19,19a,20,21,22,23-hexadecahydro-[1,4]oxazino[3′,4′:6,7][1]oxa[4,7,10,14]tetraazacycloheptadecino[17,16-c]quinoline-9-carboxamide]	809 nM	222%
Cc1ccc(CCNC(=O)[C@@H]2CC(=O)N(C)[C@@H](CC(C)C)C(=O)N3CCOC[C@@H]3C(=O)N[C@H](Cc3ccccc3)COc3cnc4ccccc4c3C(=O)N2)c(C)c1 [Example 63, (9S,13S,19aR,22R)-22-benzyl-N-(2,4-dimethylphenethyl)-13-isobutyl-12-methyl-7,11,14,20-tetraoxo-7,8,9,10,11,12,13,14,16,17,19,19a,20,21,22,23-hexadecahydro-[1,4]oxazino[3′,4′:6,7][1]oxa[4,7,10,14]tetraazacycloheptadecino[17,16-c]quinoline-9-carboxamide]	418 nM	250%
Cc1ccccc1CCNC(=O)[C@@H]1CC(=O)N(C)[C@@H](CC(C)C)C(=O)N2CCOC[C@@H]2C(=O)N[C@H](Cc2ccccc2)COc2cnc3ccccc3c2C(=O)N1 [Example 64, (9S,13S,19aR,22R)-22-benzyl-13-isobutyl-12-methyl-N-(2-methylphenethyl)-7,11,14,20-tetraoxo-7,8,9,10,11,12,13,14,16,17,19,19a,20,21,22,23-hexadecahydro-[1,4]oxazino[3′,4′:6,7][1]oxa[4,7,10,14]tetraazacycloheptadecino[17,16-c]quinoline-9-carboxamide]	441 nM	143%
COc1cccc(CCNC(=O)[C@@H]2CC(=O)N(C)[C@@H](CC(C)C)C(=O)N3CCOC[C@@H]3C(=O)N[C@H](Cc3ccccc3)COc3cnc4ccccc4c3C(=O)N2)c1OC [Example 65, (9S,13S,19aR,22R)-22-benzyl-N-(2,3-dimethoxyphenethyl)-13-isobutyl-12-methyl-7,11,14,20-tetraoxo-7,8,9,10,11,12,13,14,16,17,19,19a,20,21,22,23-hexadecahydro-[1,4]oxazino[3′,4′:6,7][1]oxa[4,7,10,14]tetraazacycloheptadecino[17,16-c]quinoline-9-carboxamide]	647 nM	282%
CC(C)C[C@H]1C(=O)N2CCOC[C@@H]2C(=O)N[C@H](Cc2ccccc2)COc2cnc3ccccc3c2C(=O)N[C@H](C(=O)NCCc2cccc(F)c2)CC(=O)N1C [Example 66, (9S,13S,19aR,22R)-22-benzyl-N-(3-fluorophenethyl)-13-isobutyl-12-methyl-7,11,14,20-tetraoxo-7,8,9,10,11,12,13,14,16,17,19,19a,20,21,22,23-hexadecahydro-[1,4]oxazino[3′,4′:6,7][1]oxa[4,7,10,14]tetraazacycloheptadecino[17,16-c]quinoline-9-carboxamide]	587 nM	169%
CC(C)C[C@H]1C(=O)N2CCOC[C@@H]2C(=O)N[C@H](Cc2ccccc2)COc2cnc3ccccc3c2C(=O)N[C@H](C(=O)NCCc2ccc(F)cc2)CC(=O)N1C [Example 67, (9S,13S,19aR,22R)-22-benzyl-N-(4-fluorophenethyl)-13-isobutyl-12-methyl-7,11,14,20-tetraoxo-7,8,9,10,11,12,13,14,16,17,19,19a,20,21,22,23-hexadecahydro-[1,4]oxazino[3′,4′:6,7][1]oxa[4,7,10,14]tetraazacycloheptadecino[17,16-c]quinoline-9-carboxamide]	615 nM	236%
CC(C)C[C@H]1C(=O)N2CCOC[C@@H]2C(=O)N[C@H](Cc2ccccc2)COc2cnc3ccccc3c2C(=O)N[C@H](C(=O)NCCc2c(F)cccc2F)CC(=O)N1C [Example 68, (9S,13S,19aR,22R)-22-benzyl-N-(2,6-difluorophenethyl)-13-isobutyl-12-methyl-7,11,14,20-tetraoxo-7,8,9,10,11,12,13,14,16,17,19,19a,20,21,22,23-hexadecahydro-[1,4]oxazino[3′,4′:6,7][1]oxa[4,7,10,14]tetraazacycloheptadecino[17,16-c]quinoline-9-carboxamide]	448 nM	331%
CC(C)C[C@H]1C(=O)N2CCOC[C@@H]2C(=O)N[C@H](Cc2ccccc2)COc2ccc3ccccc3c2C(=O)N[C@H](C(=O)NCCc2nc(-c3ccccc3)no2)CC(=O)N1C [Example 69, (9S,13S,19aR,22R)-22-benzyl-13-isobutyl-12-methyl-7,11,14,20-tetraoxo-N-(2-(3-phenyl-1,2,4-oxadiazol-5-yl)ethyl)-7,8,9,10,11,12,13,14,16,17,19,19a,20,21,22,23-hexadecahydro-[1,4]oxazino[3′,4′:6,7][1]oxa[4,7,10,14]tetraazacycloheptadecino[17,16-c]quinoline-9-carboxamide]	454 nM	262%
Cc1onc(CCNC(=O)[C@@H]2CC(=O)N(C)[C@@H](CC(C)C)C(=O)N3CCOC[C@@H]3C(=O)N[C@H](Cc3ccccc3)COc3ccc4ccccc4c3C(=O)N2)c1C [Example 70, (4aR,7R,18S,22S)-7-benzyl-N-(2-(4,5-dimethylisoxazol-3-yl)ethyl)-22-isobutyl-21-methyl-5,16,20,23-tetraoxo-1,2,4,4a,5,6,7,8,16,17,18,19,20,21,22,23-hexadecahydronaphtho[1,2-p][1,4]oxazino[3,4-f][1]oxa[4,7,10,14]tetraazacycloheptadecine-18-carboxamide]	754 nM	202%
COc1cc(CCNC(=O)[C@@H]2CC(=O)N(C)[C@@H](CC(C)C)C(=O)N3CCCC[C@@H]3C(=O)N[C@H](Cc3ccccc3)COc3cnc4ccccc4c3C(=O)N2)cc(OC)c1 [Example 71, (9S,13S,19aR,22R)-22-benzyl-N-(3,5-dimethoxyphenethyl)-13-isobutyl-12-methyl-7,11,14,20-tetraoxo-7,8,9,10,11,12,13,14,17,18,19,19a,20,21,22,23-hexadecahydro-16H-pyrido[2′,11:6,7][1]oxa[4,7,10,14]tetraazacycloheptadecino[17,16-c]quinoline-9-carboxamide]	338 nM	326%
CC(C)C[C@H]1C(=O)N2CCCC[C@@H]2C(=O)N[C@H](Cc2ccccc2)COc2cnc3ccccc3c2C(=O)N[C@H](C(=O)NCCc2c(F)cccc2F)CC(=O)N1C [Example 72, (9S,13S,19aR,22R)-22-benzyl-N-(2,6-difluorophenethyl)-13-isobutyl-12-methyl-7,11,14,20-tetraoxo-7,8,9,10,11,12,13,14,17,18,19,19a,20,21,22,23-hexadecahydro-16H-pyrido[2′,1′:6,7][1]oxa[4,7,10,14]tetraazacycloheptadecino[17,16-c]quinoline-9-carboxamide]	142 nM	335%
CC(C)C[C@H]1C(=O)N2CCCC[C@@H]2C(=O)N[C@H](Cc2ccccc2)COc2cnc3ccccc3c2C(=O)N[C@H](C(=O)NCCc2c(F)cc(F)cc2F)CC(=O)N1C [Example 73, (9S,13S,19aR,22R)-22-benzyl-13-isobutyl-12-methyl-7,11,14,20-tetraoxo-N-(2,4,6-trifluorophenethyl)-7,8,9,10,11,12,13,14,17,18,19,19a,20,21,22,23-hexadecahydro-16H-pyrido[2′,1′:6,7][1]oxa[4,7,10,14]tetraazacycloheptadecino[17,16-c]quinoline-9-carboxamide]	214 nM	253%
COc1cc(F)c(CCNC(=O)[C@@H]2CC(=O)N(C)[C@@H](CC(C)C)C(=O)N3CCCC[C@@H]3C(=O)N[C@H](Cc3ccccc3)COc3cnc4ccccc4c3C(=O)N2)c(F)c1 [Example 74, (9S,13S,19aR,22R)-22-benzyl-N-(2,6-difluoro-4-methoxyphenethyl)-13-isobutyl-12-methyl-7,11,14,20-tetraoxo-7,8,9,10,11,12,13,14,17,18,19,19a,20,21,22,23-hexadecahydro-16H-pyrido[2′,1′:6,7][1]oxa[4,7,10,14]tetraazacycloheptadecino[17,16-c]quinoline-9-carboxamide]	128 nM	271%
CC(C)C[C@H]1C(=O)N2CCCC[C@@H]2C(=O)N[C@H](Cc2ccccc2)COc2cnc3ccccc3c2C(=O)N[C@H](C(=O)NCCc2ccc(F)c(F)c2)CC(=O)N1C [Example 75, (9S,13S,19aR,22R)-22-benzyl-N-(3,4-difluorophenethyl)-13-isobutyl-12-methyl-7,11,14,20-tetraoxo-7,8,9,10,11,12,13,14,17,18,19,19a,20,21,22,23-hexadecahydro-16H-pyrido[2′,1′:6,7][1]oxa[4,7,10,14]tetraazacycloheptadecino[17,16-c]quinoline-9-carboxamide]	255 nM	191%
CC(C)C[C@H]1C(=O)N2CCCC[C@@H]2C(=O)N[C@H](Cc2ccccc2)COc2cnc3ccccc3c2C(=O)N[C@H](C(=O)NCCc2nc(-c3ccccc3)no2)CC(=O)N1C [Example 76, (9S,13S,19aR,22R)-22-benzyl-13-isobutyl-12-methyl-7,11,14,20-tetraoxo-N-(2-(3-phenyl-1,2,4-oxadiazol-5-yl)ethyl)-7,8,9,10,11,12,13,14,17,18,19,19a,20,21,22,23-hexadecahydro-16H-pyrido[2′,1′:6,7][1]oxa[4,7,10,14]tetraazacycloheptadecino[17,16-c]quinoline-9-carboxamide]	196 nM	283%
CC(C)C[C@H]1C(=O)N2CCCC[C@@H]2C(=O)N[C@H](Cc2ccccc2)COc2cnc3ccccc3c2C(=O)N[C@H](C(=O)NCCc2ccccc2)CC(=O)N1C [Example 77, (9S,13S,19aR,22R)-22-benzyl-13-isobutyl-12-methyl-7,11,14,20-tetraoxo-N-phenethyl-7,8,9,10,11,12,13,14,17,18,19,19a,20,21,22,23-hexadecahydro-16H-pyrido[2′,1′:6,7][1]oxa[4,7,10,14]tetraazacycloheptadecino[17,16-c]quinoline-9-carboxamide]	231 nM	237%

Source: US20240208992A1, “MACROCYCLES AS CFTR MODULATORS” (Idorsia Pharmaceuticals Ltd, priority 2021, published 2024)
